Laboratory results: ChEMBL document CHEMBL4402583, “Rational Substitution of ε-Lysine for α-Lysine Enhances the Cell and Membrane Selectivity of Pore-Forming Melittin” (J Med Chem, 2020)
≈ marks a conversion by molar mass, not a printed value. Calls of active or inactive are those of the source. The rule behind the calls is not given here.

Legend:
Enterococcus faecalis [1] = experiment: Induction of pore formation in intact vancomycin-resistant Enterococcus faecalis 1002 cell membrane assessed as SG uptake at 2 times MIC by SG dye based fluorescence based assay; type: organism-based
Candida albicans = experiment: Antifungal activity against Candida albicans assessed as reduction in fungal growth incubated for 24 hrs by broth microdilution method; type: functional
Acinetobacter baumannii [2] = experiment: Antibacterial activity against Acinetobacter baumannii 1001 assessed as reduction in bacterial viability at 2 or 4 times MIC incubated up to 24 hrs in MHB medium followed by reincubation on MH agar plate for 24 to 48 hrs by time kill kinetics assay; type: functional, organism-based
Escherichia coli [3] = experiment: Induction of pore formation in intact Escherichia coli 1004 cell membrane assessed as SG uptake at 2 times MIC by SG dye based fluorescence based assay; type: organism-based
Pseudomonas aeruginosa = experiment: Antibacterial activity against Pseudomonas aeruginosa assessed as reduction in bacterial growth incubated for 24 hrs by broth microdilution method; type: functional
Oryctolagus cuniculus [4] = experiment: Induction of reepithelialization in injured New Zealand white rabbit cornea assessed as wound healing administered topically for qid measured at day 5 post-injury by fluorescein sodium staining based microscopic imaging analysis (reference value: 39.8 +/- 6.2 %); type: organism-based; details: in vivo, topical_or_ocular
Enterococcus = experiment: Antibacterial activity against vancomycin-resistant Enterococcus assessed as reduction in bacterial growth incubated for 24 hrs by broth microdilution method; type: functional
Staphylococcus aureus [5] = experiment: Antibacterial activity against methicillin-resistance Staphylococcus aureus assessed as reduction in bacterial growth incubated for 24 hrs by broth microdilution method; type: functional
[6] = Stability of the compound in rabbit tear fluids assessed as parent compound remaining measured after 4 hrs by UPLC-MS analysis; type: ADME, Oryctolagus cuniculus; details: tear fluid, read-out: Stability
T-cell [7] = experiment: Immunogenicity in human PBL T cells assessed as increase in IFN-gamma production at 62.5 or 125 ug/ml incubated for 24 hrs by ELISA; type: ADME, cell-based
T-cell [8] = experiment: Immunogenicity in human PBL T cells assessed as increase in IL-4 production at 62.5 or 125 ug/ml incubated for 24 hrs by ELISA; type: ADME, cell-based
Oryctolagus cuniculus [9] = experiment: Induction of reepithelialization in injured New Zealand white rabbit cornea assessed as wound healing administered topically for qid measured at day 3 post-injury by fluorescein sodium staining based microscopic imaging analysis (reference value: 63.9 +/- 5.3 %); type: organism-based; details: in vivo, topical_or_ocular
Oryctolagus cuniculus [10] = experiment: Induction of reepithelialization in injured New Zealand white rabbit cornea assessed as wound healing administered topically for qid measured at day 4 post-injury by fluorescein sodium staining based microscopic imaging analysis (reference value: 48.4 +/- 7.6 %); type: organism-based; details: in vivo, topical_or_ocular
Oryctolagus cuniculus [11] = experiment: Induction of reepithelialization in injured New Zealand white rabbit cornea assessed as wound healing at 0.3% administered topically for qid measured at day 1 post-injury by fluorescein sodium staining based microscopic imaging analysis (reference value: 89.9 +/- 2.9 %); type: organism-based; details: in vivo, topical_or_ocular
HaCaT = experiment: Cytotoxicity against human HaCaT cells assessed as truncation and reduction in cytoskeleton at 500 ug/ml incubated for 24 hrs by Alexa Fluor […] phalloidin-FITC/Hoescht dye staining based fluorescence microscopic analysis; type: cell-based
Enterococcus faecalis [12] = experiment: Induction of pore formation in intact vancomycin-resistant Enterococcus faecalis ATCC 29212 cell membrane assessed as SG uptake at 2 times MIC by SG dye based fluorescence based assay; type: organism-based
Escherichia coli [13] = experiment: Antibacterial activity against Escherichia coli 1004 assessed as reduction in bacterial viability at 2 or 4 times MIC incubated up to 24 hrs in MHB medium followed by reincubation on MH agar plate for 24 to 48 hrs by time kill kinetics assay; type: functional, organism-based
NHDF = experiment: Cytotoxicity against HDF cells assessed as truncation and reduction in cytoskeleton at 500 ug/ml incubated for 24 hrs by Alexa Fluor […] phalloidin-FITC/Hoescht dye staining based fluorescence microscopic analysis; type: cell-based; details: human
Enterococcus faecalis [14] = experiment: Antibacterial activity against vancomycin-resistant Enterococcus faecalis 1002 assessed as log10 reduction in bacterial viability at 2 to 4 times MIC incubated for 30 mins in MHB medium followed by reincubation on MH agar plate for 24 to 48 hrs by time kill kinetics analysis; type: functional
Enterobacteriaceae = experiment: Antibacterial activity against Carbapenem-Resistant Enterobacteriaceae assessed as reduction in bacterial growth incubated for 24 hrs by broth microdilution method; type: functional
Oryctolagus cuniculus [15] = experiment: Induction of reepithelialization in injured New Zealand white rabbit cornea assessed as wound healing administered topically for qid measured at day 8 post-injury by fluorescein sodium staining based microscopic imaging analysis (reference value: 3.8 %); type: organism-based; details: in vivo, topical_or_ocular
[16] = Stability of the compound in rabbit tear fluid measured after 2 hrs by UPLC-MS analysis; type: ADME, Oryctolagus cuniculus
Enterococcus faecalis [17] = experiment: Resistance index, ratio of MIC for vancomycin-resistant Enterococcus faecalis 1010 measured after 20 serial passages by broth microdilution method to MIC for vancomycin-resistant Enterococcus faecalis 1010 incubated for 24 hrs by broth microdilution method; type: functional
Oryctolagus cuniculus [18] = experiment: Induction of reepithelialization in injured New Zealand white rabbit cornea assessed as wound healing administered topically for qid measured at day 6 post-injury by fluorescein sodium staining based microscopic imaging analysis (reference value: 24.1 +/- 8.5 %); type: organism-based; details: in vivo, topical_or_ocular
[19] = Hemolytic activity against human erythrocytes assessed as hemoglobin release incubated for 1 hr; type: ADME, cell-based, Erythrocyte; details: read-out: HD50
T-cell [20] = experiment: Immunogenicity in human PBL T cells assessed as increase in IL-2 production at 62.5 or 125 ug/ml incubated for 24 hrs by ELISA; type: ADME, cell-based
Staphylococcus aureus [21] = experiment: In vivo antibacterial activity against Staphylococcus aureus ATCC 29213 infected in C57BL/6 mouse assessed as reduction in bacterial burden by measuring log10 CFU/cornea at 0.3% administered topically as two times on day 1, four times on day 2 and two times on day 3 measured at 48 hrs post-final dose by 10 fold serial dilution method (reference value: 6.5 +/- 0.7 log10CFU); type: functional
Enterococcus faecalis [22] = experiment: Antibacterial activity against vancomycin-resistant Enterococcus faecalis 1010 assessed as log10 reduction in bacterial viability at 2 to 4 times MIC incubated for 30 mins in MHB medium followed by reincubation on MH agar plate for 24 to 48 hrs by time kill kinetics analysis; type: functional
Acinetobacter baumannii [23] = experiment: Antibacterial activity against Acinetobacter baumannii ATCC 19606 assessed as reduction in bacterial growth at sublethal concentrations measured after 20 serial passages by broth microdilution method; type: functional, organism-based; details: ATCC 19606 = CIP 70.34 = JCM 6841
Klebsiella pneumoniae = experiment: Antibacterial activity against Klebsiella pneumoniae 1008 assessed as reduction in bacterial viability at 2 or 4 times MIC incubated up to 24 hrs in MHB medium followed by reincubation on MH agar plate for 24 to 48 hrs by time kill kinetics assay; type: functional, organism-based
Staphylococcus aureus [24] = experiment: Antibacterial activity against methicillin-sensitive Staphylococcus aureus assessed as reduction in bacterial growth incubated for 24 hrs by broth microdilution method; type: functional
Acinetobacter baumannii [25] = experiment: Induction of pore formation in intact Acinetobacter baumannii 1001 cell membrane assessed as SG uptake at 2 times MIC by SG dye based fluorescence based assay; type: organism-based
T-cell [26] = experiment: Immunogenicity in human PBL T cells assessed as increase in IL-5 production at 62.5 or 125 ug/ml incubated for 24 hrs by ELISA; type: ADME, cell-based
Enterococcus faecalis [27] = experiment: Antibacterial activity against vancomycin-resistant Enterococcus faecalis ATCC 29212 assessed as log10 reduction in bacterial viability at 2 to 4 times MIC incubated for 30 mins in MHB medium followed by reincubation on MH agar plate for 24 to 48 hrs by time kill kinetics analysis; type: functional
Oryctolagus cuniculus [28] = experiment: Induction of reepithelialization in injured New Zealand white rabbit cornea assessed as wound healing administered topically for qid measured at day 7 post-injury by fluorescein sodium staining based microscopic imaging analysis (reference value: 8.6 %); type: organism-based; details: in vivo, topical_or_ocular
Acinetobacter baumannii [29] = experiment: Antibacterial activity against multidrug-resistant Acinetobacter baumannii assessed as reduction in bacterial growth incubated for 24 hrs by broth microdilution method; type: functional
[30] = Cytotoxicity against HDF cells assessed as cell viability at 500 ug/ml incubated for 24 hrs by MTS assay relative to control; type: cell-based; details: human, HDF cells (NHDF, human dermal fibroblasts); read-out: Activity
Oryctolagus cuniculus [31] = experiment: Induction of reepithelialization in injured New Zealand white rabbit cornea assessed as wound healing administered topically for qid measured at day 2 post-injury by fluorescein sodium staining based microscopic imaging analysis (reference value: 76.6 +/- 4.5 %); type: organism-based; details: in vivo, topical_or_ocular

Compound: CC[C@H](C)[C@H](NC(=O)CN)C(=O)NCC(=O)N[C@@H](C)C(=O)N[C@H](C(=O)N[C@@H](CC(C)C)C(=O)NCCC[C@@H](CN)C(=O)N[C@H](C(=O)N[C@@H](CC(C)C)C(=O)N[C@H](C(=O)N[C@H](C(=O)NCC(=O)N[C@@H](CC(C)C)C(=O)N1CCC[C@H]1C(=O)N[C@@H](C)C(=O)N[C@@H](CC(C)C)C(=O)N[C@H](C(=O)N[C@@H](CO)C(=O)N[C@@H](Cc1c[nH]c2ccccc12)C(=O)N[C@H](C(=O)NCCC[C@@H](CN)C(=O)N[C@@H](CCCNC(=N)N)C(=O)N[C@@H](CCCCN)C(=O)N[C@@H](CCCNC(=N)N)C(=O)N[C@@H](CCC(N)=O)C(=O)N[C@@H](CCC(N)=O)C(N)=O)[C@@H](C)CC)[C@@H](C)CC)[C@@H](C)O)[C@@H](C)O)C(C)C)C(C)C
- Activity (Enterococcus faecalis [1]): Active
- MIC (Candida albicans): 16 to 32 µg/mL (≈ 5.62 to 11.2 µM)
- MIC50 (Candida albicans): 32 µg/mL (≈ 11.2 µM)
- Activity (Acinetobacter baumannii [2]): Active
- Activity (Escherichia coli [3]): Active
- MIC (Pseudomonas aeruginosa): 8 to 64 µg/mL (≈ 2.81 to 22.5 µM)
- MIC50 (Pseudomonas aeruginosa): 32 µg/mL (≈ 11.2 µM)
- Activity (Oryctolagus cuniculus [4]): 21.7%
- MIC (Enterococcus): 4 to 16 µg/mL (≈ 1.41 to 5.62 µM)
- MIC50 (Enterococcus): 8 µg/mL (≈ 2.81 µM)
- MIC50 (Staphylococcus aureus [5]): 64 µg/mL (≈ 22.5 µM)
- remaining at 4 h [6]: 90.3%
- Activity (T-cell [7]): Non-Toxic
- Activity (T-cell [8]): Non-Toxic
- Activity (Oryctolagus cuniculus [9]): 44.9%
- Activity (Oryctolagus cuniculus [10]): 33.1%
- Activity (Oryctolagus cuniculus [11]): 83.4%
- Activity (HaCaT): Toxic
- Activity (Enterococcus faecalis [12]): Active
- Activity (Escherichia coli [13]): Active
- Activity (NHDF): Toxic
- log(activity) (Enterococcus faecalis [14]): >5
- MIC (Enterobacteriaceae): 4 to 64 µg/mL (≈ 1.41 to 22.5 µM)
- MIC50 (Enterobacteriaceae): 8 µg/mL (≈ 2.81 µM)
- Activity (Oryctolagus cuniculus [15]): 2.9%
- Stability [16]: Stable
- Ratio (Enterococcus faecalis [17]): 4
- Activity (Oryctolagus cuniculus [18]): 14.7%
- HC50 at 1 h [19]: 215 µg/mL
- Activity (T-cell [20]): Non-Toxic
- Activity (Staphylococcus aureus [21]): 3.9 log10CFU
- log(activity) (Enterococcus faecalis [22]): >5
- Activity (Acinetobacter baumannii [23]): Active
- Activity (Klebsiella pneumoniae): Active
- MIC (Staphylococcus aureus [24]): 16 to 128 µg/mL (≈ 5.62 to 45 µM)
- MIC50 (Staphylococcus aureus [24]): 64 µg/mL (≈ 22.5 µM)
- Activity (Acinetobacter baumannii [25]): Active
- Activity (T-cell [26]): Non-Toxic
- log(activity) (Enterococcus faecalis [27]): >5
- Activity (Oryctolagus cuniculus [28]): 4.6%
- MIC (Acinetobacter baumannii [29]): 2 to 8 µg/mL (≈ 0.703 to 2.81 µM)
- MIC50 (Acinetobacter baumannii [29]): 4 µg/mL (≈ 1.41 µM)
- viability at 24 h, 500 ug/ml [30]: 91.9%
- Activity (Oryctolagus cuniculus [31]): 60.3%
